≈ marks a conversion by molar mass, not a printed value.
Columns and labels:
[1] = tested on: Streptococcus pneumoniae; experiment: Antibacterial activity against penicillin-resistant and quinolone-susceptible Streptococcus pneumoniae HMC 228 expressing ermB after 28 passages by broth microdilution method; format: functional
[2] = tested on: Streptococcus pneumoniae; experiment: Antibacterial activity against penicillin-, macrolide- and quinolone-susceptible Streptococcus pneumoniae HMC 63 by broth microdilution method; format: functional
[3] = tested on: Streptococcus pneumoniae; experiment: Antibacterial activity against penicillin-susceptible, quinolone-resistant Streptococcus pneumoniae 1072 expressing ermB and harboring S81F mutation in quinolone-resistant determining regions of GyrA gene, S79Y mutation in QRDR of ParC gene and I460V mutation in QRDR of ParE gene by broth microdilution method; format: functional
[4] = tested on: Streptococcus pneumoniae; experiment: Antibacterial activity against penicillin-resistant and quinolone-susceptible Streptococcus pneumoniae HMC 3583 expressing mefA after 46 passages by broth microdilution method; format: functional
[5] = tested on: Streptococcus pneumoniae; experiment: Antibacterial activity against macrolide-, quinolone-susceptible and penicillin-intermediate Streptococcus pneumoniae HMC 100 after 50 passages by broth microdilution method; format: functional
[6] = tested on: Streptococcus pneumoniae; experiment: Antibacterial activity against Streptococcus pneumoniae HMC 1059 harboring S81F mutation in quinolone-resistant determining regions of GyrA gene, S79F, K137N mutation in QRDR of ParC gene and I460N mutation in QRDR of ParE gene by agar dilution method; format: functional
[7] = tested on: Streptococcus pneumoniae; experiment: Antibacterial activity against penicillin-resistant and quinolone-susceptible Streptococcus pneumoniae HMC 3583 expressing mefA after 50 passages by broth microdilution method; format: functional
[8] = tested on: Streptococcus pneumoniae; experiment: Antibacterial activity against macrolide-, quinolone-susceptible and penicillin-intermediate Streptococcus pneumoniae HMC 99 after 41 passages by broth microdilution method
[9] = tested on: Streptococcus pneumoniae; experiment: Antibacterial activity against macrolide-, quinolone-susceptible and penicillin-intermediate Streptococcus pneumoniae HMC 100 after 22 passages by broth microdilution method; format: functional
[10] = tested on: Streptococcus pneumoniae; experiment: Antibacterial activity against penicillin-resistant and quinolone-susceptible Streptococcus pneumoniae HMC 228 expressing ermB after 36 passages by broth microdilution method; format: functional
[11] = tested on: Streptococcus pneumoniae; experiment: Antibacterial activity against penicillin-, macrolide-susceptible and quinolone-resistant Streptococcus pneumoniae HMC 1074 harboring S81F mutation in quinolone-resistant determining regions of GyrA gene, S79F mutation in QRDR of ParC gene and I460V mutation in QRDR of ParE gene after 27 passages by broth microdilution method; format: functional
[12] = tested on: Streptococcus pneumoniae; experiment: Antibacterial activity against penicillin-, macrolide- and quinolone-susceptible Streptococcus pneumoniae HMC 63 after 34 passages by broth microdilution method; format: functional
[13] = tested on: Streptococcus pneumoniae; experiment: Antibacterial activity against macrolide-, quinolone-susceptible and penicillin-intermediate Streptococcus pneumoniae HMC 100 after 42 passages by broth microdilution method; format: functional
[14] = tested on: Streptococcus pneumoniae; experiment: Antibacterial activity against penicillin-resistant and quinolone-susceptible Streptococcus pneumoniae HMC 3583 expressing mefA after 41 passages by broth microdilution method; format: functional
[15] = tested on: Streptococcus pneumoniae; experiment: Antibacterial activity against penicillin-resistant and quinolone-susceptible Streptococcus pneumoniae HMC 228 expressing ermB after 50 passages by broth microdilution method; format: functional
[16] = tested on: Streptococcus sp.; experiment: Antibacterial activity against Streptococcus sp. by agar dilution method; format: functional
[17] = tested on: Streptococcus sp.; experiment: Antibacterial activity against levofloxacin-intermediate -resistant Streptococcus sp. by agar dilution method; format: functional
[18] = tested on: Streptococcus pneumoniae; experiment: Antibacterial activity against penicillin-resistant and quinolone-susceptible Streptococcus pneumoniae HMC 228 expressing ermB after 38 passages by broth microdilution method; format: functional
[19] = tested on: Streptococcus pneumoniae; experiment: Antibacterial activity against penicillin-resistant and quinolone-susceptible Streptococcus pneumoniae HMC 3583 expressing mefA after 49 passages by broth microdilution method; format: functional

Compound | MIC [1] [µg/mL] | MIC [2] [µg/mL] | MIC [3] [µg/mL] | MIC [4] [µg/mL] | MIC [5] [µg/mL] | MIC [6] [µg/mL] | MIC [7] [µg/mL] | MIC [8] [µg/mL] | MIC [9] [µg/mL] | MIC [10] [µg/mL] | MIC [11] [µg/mL] | MIC [12] [µg/mL] | MIC [13] [µg/mL] | MIC [14] [µg/mL] | MIC [15] [µg/mL] | MIC90 [16] [µg/mL] | MIC90 [17] [µg/mL] | MIC [18] [µg/mL] | MIC [19] [µg/mL]
COc1c(N2CCNC(C)C2)c(F)cc2c(=O)c(C(=O)O)cn(C3CC3)c12 (stereo unspecified) [GATIFLOXACIN] | 4 (≈ 10.7 µM) | 0.5 (≈ 1.33 µM) | 8 (≈ 21.3 µM) | 4 (≈ 10.7 µM) | 0.5 (≈ 1.33 µM) | 8 (≈ 21.3 µM) | – | – | – | – | – | – | – | – | – | – | – | – | –
COc1c(N2C[C@@H]3CCCN[C@@H]3C2)c(F)cc2c(=O)c(C(=O)O)cn(C3CC3)c12 [MOXIFLOXACIN] | – | 0.25 (≈ 0.623 µM) | 4 (≈ 9.96 µM) | – | – | 4 (≈ 9.96 µM) | 0.5 (≈ 1.25 µM) | 4 (≈ 9.96 µM) | 2 (≈ 4.98 µM) | 2 (≈ 4.98 µM) | – | – | – | – | – | – | – | – | –
CO/N=C1\CN(c2nc3c(cc2F)c(=O)c(C(=O)O)cn3C2CC2)CC1CN (stereo unspecified) [GEMIFLOXACIN] | – | 0.06 (≈ 0.154 µM) | 0.5 (≈ 1.28 µM) | – | – | 0.5 (≈ 1.28 µM) | – | – | – | – | 4 (≈ 10.3 µM) | 0.5 (≈ 1.28 µM) | 1 (≈ 2.57 µM) | 0.25 (≈ 0.642 µM) | 0.25 (≈ 0.642 µM) | – | – | – | –
COc1c(N2CC3(CC3)[C@](C)(N)C2)c(F)cc2c(=O)c(C(=O)O)cn([C@@H]3C[C@@H]3F)c12.O | – | 0.12 | 1 | – | 0.5 | 1 | 1 | – | – | – | – | – | – | – | 1 | 0.125 | 1 | 1 | 1

— ChEMBL document CHEMBL1151449, “In vitro activity of DC-159a, a new broad-spectrum fluoroquinolone, compared with that of other agents against drug-susceptible and -resistant pneumococci” (2008)
